Where a name gives a salt, the structure may show the parent alone.
Tested on: not given
Test: not given
Details: not given

Point of comparison: O=C(c1c(Cc2c(F)cccc2Cl)c(-c2ccccc2)c2ccccn12)N1CCNCC1 (as salt: hydrochloride) [Example 3, [2-(2-Chloro-6-fluoro-benzyl)-1-phenyl-indolizin-3-yl]-piperazin-1-yl-methanone], melting point 304 °C. Against it:
- Cc1c(F)cccc1Cc1c(-c2ccccc2)c2ccccn2c1C(=O)N1CCN[C@@H](CC(=O)NCCS(C)(=O)=O)C1 (as salt: hydrochloride) [Example 31] — lower, 166 to 168 °C
- Cc1c(F)cccc1Cc1c(-c2ccccc2)c2ccccn2c1C(=O)N1CCN[C@@H](CC(=O)NCC(C)(C)C(N)=O)C1 (as salt: hydrochloride) [Example 7, 3-(2-{(S)-4-[2-(3-Fluoro-2-methyl-benzyl)-1-phenyl-indolizine-3-carbonyl]-piperazin-2-yl}-acetylamino)-2,2-dimethyl-propionamide] — lower, 174 to 176 °C
- Cc1c(F)cccc1Cc1c(-c2ccccc2)c2ccccn2c1C(=O)N1CCN[C@@H](CC(=O)NCC2CCOCC2)C1 (as salt: hydrochloride) [Example 6, 2-{(S)-4-[2-(3-Fluoro-2-methyl-benzyl)-1-phenyl-indolizine-3-carbonyl]-piperazin-2-yl}-N-(tetrahydropyran-4-ylmethyl)-acetamide] — lower, 147 °C
- COCCN(C)C(=O)C[C@H]1CN(C(=O)c2c(Cc3cccc(F)c3C)c(-c3ccccc3)c3cc(C(=O)N(C)C)cnn23)CCN1 (as salt: hydrochloride) [Example 46] — lower, 130 to 132 °C
- Cc1c(F)cccc1Cc1c(-c2ccccc2)c2ccccn2c1C(=O)N1CCN[C@@H](CO)C1 (as salt: hydrochloride) [Example 22] — lower, 180 to 181 °C
- Cc1c(F)cccc1Cc1c(-c2ccccc2)c2cccnn2c1C(=O)N1CCNCC1 (as salt: hydrochloride) [Example 9, [6-(3-Fluoro-2-methyl-benzyl)-5-phenyl-pyrrolo[1,2-b]pyridazin-7-yl]-piperazin-1-yl-methanone] — lower, 140 to 142 °C
- Cc1c(F)cccc1Cc1c(-c2ccccc2)c2ccccn2c1C(=O)N1CCNCC1 (as salt: hydrochloride) [Example 1, [2-(3-Fluoro-2-methyl-benzyl)-1-phenyl-indolizin-3-yl]-piperazin-1-yl-methanone] — lower, 263 °C
- CNC(=O)CC[C@H]1CN(C(=O)c2c(Cc3cccc(F)c3C)c(-c3ccccc3)c3ccccn23)CCN1 (as salt: hydrochloride) [Example 26] — lower, 127 to 129 °C
- COc1ccn2c(C(=O)N3CCNCC3)c(Cc3cccc(F)c3C)c(-c3ccccc3)c2c1 (as salt: hydrochloride) [Example 35, [2-(3-fluoro-2-methyl-benzyl)-7-methoxy-1-phenyl-indolizin-3-yl]-piperazin-1-yl-methanone] — lower, 124 to 125 °C
- COC(=O)CCNC(=O)C[C@H]1CN(C(=O)c2c(Cc3cccc(F)c3C)c(-c3ccccc3)c3ccccn23)CCN1 (as salt: hydrochloride) [Example 30] — lower, 112 to 113 °C
- CNC(=O)c1ccn2c(C(=O)N3CCNCC3)c(Cc3cccc(F)c3C)c(-c3ccccc3)c2c1 (as salt: hydrochloride) [Example 4, 2-(3-Fluoro-2-methyl-benzyl)-1-phenyl-3-(piperazine-1-carbonyl)-indolizine-7-carboxylic acid methylamide] — lower, 205 °C
- CCNC(=O)c1cnn2c(C(=O)N3CCN[C@@H](CC(=O)NCCOC)C3)c(Cc3cccc(F)c3C)c(-c3ccccc3)c2c1 (as salt: hydrochloride) [Example 42, 6-(3-fluoro-2-methyl-benzyl)-7-{(S)-3-[(2-methoxy-ethylcarbamoyl)-methyl]-piperazine-1-carbonyl}-5-phenyl-pyrrolo[1,2-b]pyridazine-3-carboxylic acid ethylamide] — lower, 151 to 153 °C
- CNC(=O)c1cnn2c(C(=O)N3CCNCC3)c(Cc3cccc(F)c3C)c(-c3ccccc3)c2c1 (as salt: hydrochloride) [Example 8, 6-(3-Fluoro-2-methyl-benzyl)-5-phenyl-7-(piperazine-1-carbonyl)-pyrrolo[1,2-b]pyridazin-3-carboxylic acid methylamide] — lower, 208 to 210 °C
- Cc1c(F)cccc1Cc1c(C2CCCCC2)c2ccccn2c1C(=O)N1CCNCC1 (as salt: hydrochloride) [Example 2, [1-Cyclohexyl-2-(3-fluoro-2-methyl-benzyl)-indolizin-3-yl]-piperazin-1-yl-methanone] — higher, 317 to 318 °C
- Cc1cccc(C)c1Cc1c(-c2ccccc2)c2ccccn2c1C(=O)N1CCN[C@H](C)C1 (as salt: hydrochloride) [Example 17, [2-(2,6-Dimethyl-benzyl)-1-phenyl-indolizin-3-yl)-((R)-3-methyl-piperazin-1-yl)-methanone] — lower, 302 °C
- Cc1c(F)cccc1Cc1c(-c2ccccc2)c2ccccn2c1C(=O)N1CCN[C@@H](CCO)C1 (as salt: hydrochloride) [Example 5, [2-(3-Fluoro-2-methyl-benzyl)-1-phenyl-indolizin-3-yl]-[(S)-3-(2-hydroxy-ethyl)-piperazin-1]-yl-methanone] — lower, 202 °C
- Cc1c(F)cccc1Cc1c(-c2ccccc2)c2cc(C(=O)N3CCCCC3)cnn2c1C(=O)N1CCN[C@@H](CC(=O)NCCO)C1 (as salt: hydrochloride) [Example 39] — lower, 164 to 166 °C
- Cc1c(F)cccc1Cc1c(-c2ccccc2)c2ccccn2c1C(=O)N1CCN[C@@H](CC(=O)NCc2cccnc2)C1 (as salt: hydrochloride) [Example 32] — lower, 181 to 182 °C
- CNC(=O)c1ccc2c(-c3ccccc3)c(Cc3cccc(F)c3C)c(C(=O)N3CCNCC3)n2c1 (as salt: hydrochloride) [Example 13, 2-(3-Fluoro-2-methyl-benzyl)-1-phenyl-3-(piperazine-1-carbonyl)-indolizine-6-carboxylic acid methylamide] — lower, 273 °C
- Cc1c(F)cccc1Cc1c(-c2ccccc2)c2cc(O)cnn2c1C(=O)N1CCNCC1 (as salt: hydrochloride) [Example 10, [6-(3-Fluoro-2-methyl-benzyl)-3-hydroxy-5-phenyl-pyrrolo[1,2-b]pyridazin-7-yl]-piperazin-1-yl-methanone] — lower, 206 to 208 °C

Target: T1, Recombinant human renin (Homo sapiens, UniProt P00797)
T1 construct: purchased Cayman 10006217
T1 sequence (P00797 67-406): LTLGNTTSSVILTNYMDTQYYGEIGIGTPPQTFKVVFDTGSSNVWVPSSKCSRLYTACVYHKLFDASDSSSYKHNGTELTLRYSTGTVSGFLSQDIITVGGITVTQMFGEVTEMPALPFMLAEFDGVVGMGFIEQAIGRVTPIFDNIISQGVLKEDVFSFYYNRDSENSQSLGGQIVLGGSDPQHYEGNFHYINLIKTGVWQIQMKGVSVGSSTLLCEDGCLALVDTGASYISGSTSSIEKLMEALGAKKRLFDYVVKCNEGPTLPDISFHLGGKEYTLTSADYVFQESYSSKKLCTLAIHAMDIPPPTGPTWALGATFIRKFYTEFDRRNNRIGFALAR
Test: Inhibition of renin (fluorogenic peptide substrate)
Type: biochemical
Details: recombinant human renin 5 nM, fluorogenic peptide substrate 10 μM, 2 h at room temperature, Tris buffer pH 8; compounds tested as the obtained salt
Method: Recombinant human renin (Cayman, no. 10006217) at a concentration of 5 nM was incubated with the test compounds at various concentrations and the synthetic substrate Dabcyl-γ-Abu-Ile-His-Pro-Phe-His-Leu-Val-Ile-His-Thr-EDANS (Bachem, no. M-2050; Dabcyl means the 4-(4-dimethylamino-phenylazo)-benzoyl group and EDANS means the amide with 5-[(2-aminoethyl)amino]-naphthalene-1-sulfonic acid) at a concentration of 10 μM for 2 h at room temperature in 0.05 M Tris buffer (pH 8) containing 0.1 M NaCl, 2.5 mM EDTA and 1.25 mg/ml bovine serum albumin. The increase in fluorescence, which is due to fluorescence resonance energy transfer, was recorded at an excitation wavelength of 330 nm and an emission wavelength of 485 nm in a microplate spectrofluorometer. Inhibitory concentrations IC50 were calculated from the percentage of inhibition of renin activity as a function of the concentration of the test compound. […] Representative IC50 values, which were determined with the compounds in the form of the obtained salt indicated in the examples above, are listed in Table 4.

Point of comparison: Cc1c(F)cccc1Cc1c(-c2ccccc2)c2cc(O)cnn2c1C(=O)N1CCNCC1 [Example 10, [6-(3-Fluoro-2-methyl-benzyl)-3-hydroxy-5-phenyl-pyrrolo[1,2-b]pyridazin-7-yl]-piperazin-1-yl-methanone], IC50 8.2 nM. Against it:
- Cc1c(F)cccc1Cc1c(-c2ccccc2)c2ccccn2c1C(=O)N1CCN[C@@H](CC(=O)NCC(C)(C)C(N)=O)C1 [Example 7, 3-(2-{(S)-4-[2-(3-Fluoro-2-methyl-benzyl)-1-phenyl-indolizine-3-carbonyl]-piperazin-2-yl}-acetylamino)-2,2-dimethyl-propionamide] — 3.2-fold lower, 2.6 nM
- CNC(=O)CC[C@H]1CN(C(=O)c2c(Cc3cccc(F)c3C)c(-c3ccccc3)c3ccccn23)CCN1 [Example 26] — 28-fold higher, 230 nM
- Cc1c(F)cccc1Cc1c(C(=O)N2CCNCC2)c2cc(Br)ccn2c1-c1ccccc1 [Example 12, [7-Bromo-2-(3-fluoro-2-methyl-benzyl)-3-phenyl-indolizin-1-yl]-piperazin-1-yl-methanone] — 44-fold higher, 360 nM
- COc1ccn2c(C(=O)N3CCNCC3)c(Cc3cccc(F)c3C)c(-c3ccccc3)c2c1 [Example 35, [2-(3-fluoro-2-methyl-benzyl)-7-methoxy-1-phenyl-indolizin-3-yl]-piperazin-1-yl-methanone] — 3.4-fold higher, 28 nM
- Cc1c(F)cccc1Cc1c(-c2ccccc2)c2ccccn2c1C(=O)N1CCNCC1 [Example 1, [2-(3-Fluoro-2-methyl-benzyl)-1-phenyl-indolizin-3-yl]-piperazin-1-yl-methanone] — within 1.5-fold, 7.1 nM
- Cc1c(F)cccc1Cc1c(-c2ccccc2)c2ccccn2c1C(=O)N1CCN[C@@H](CC(=O)NCC2CCOCC2)C1 [Example 6, 2-{(S)-4-[2-(3-Fluoro-2-methyl-benzyl)-1-phenyl-indolizine-3-carbonyl]-piperazin-2-yl}-N-(tetrahydropyran-4-ylmethyl)-acetamide] — 3.2-fold lower, 2.6 nM
- Cc1c(F)cccc1Cc1c(-c2ccccc2)c2ccccn2c1C(=O)N1CCN[C@@H](CC(=O)NCc2cccnc2)C1 [Example 32] — 4.6-fold higher, 38 nM
- Cc1c(F)cccc1Cc1c(-c2ccccc2)c2ccccn2c1C(=O)N1CCN[C@@H](CO)C1 [Example 22] — 12-fold higher, 100 nM
- CNC(=O)c1ccc2c(-c3ccccc3)c(Cc3cccc(F)c3C)c(C(=O)N3CCNCC3)n2c1 [Example 13, 2-(3-Fluoro-2-methyl-benzyl)-1-phenyl-3-(piperazine-1-carbonyl)-indolizine-6-carboxylic acid methylamide] — 7.8-fold higher, 64 nM
